In brackets after ≈: the same amount, converted by molar mass.
Experiments:
Assay type in all cases: functional, cell-based
[1] = tested on: HT-29; experiment: Cytotoxicity against human HT-29 cells
[2] = tested on: HCT-8; experiment: Cytotoxicity against human HCT8 cells
[3] = tested on: A549; experiment: Cytotoxicity against human A549 cells
[4] = tested on: P388; experiment: Cytotoxicity against mouse P388 cells

## CNc1nc2c(C)ccc3nc(N(C)C)nc-3c2n1C
[1]
  IC50: 0.824 µg/mL (≈ 3.05 µM)
[2]
  IC50: 1.61 µg/mL (≈ 5.96 µM)
[3]
  IC50: 2.38 µg/mL (≈ 8.8 µM)
[4]
  IC50: 1.77 µg/mL (≈ 6.55 µM)
